Assay results published in ChEMBL document CHEMBL4364246, “Synthesis and biological evaluation of 5-aminoethyl benzophenanthridone derivatives as DNA topoisomerase IB inhibitors” (Eur J Med Chem, 2019).
Calls of active or inactive are those of the source. The rule behind the calls is not given here.

Legend:
A549 = assay: cells; settings: Homo sapiens, A549, 72 h
MCF7 = assay: cells; settings: Homo sapiens, MCF7, 72 h
[1] = biological target: T1, DNA topoisomerase 1 (Homo sapiens) (UniProt P11387); assay: Inhibition of recombinant TOP1 (unknown origin) using 3'-[32P]-labeled 117 bp DNA oligonucleotide assessed as […] TOP1-mediated DNA cleavage incubated for 20 mins by PAGE analysis relative to 1 uM CPT
T1 sequence (whole entry): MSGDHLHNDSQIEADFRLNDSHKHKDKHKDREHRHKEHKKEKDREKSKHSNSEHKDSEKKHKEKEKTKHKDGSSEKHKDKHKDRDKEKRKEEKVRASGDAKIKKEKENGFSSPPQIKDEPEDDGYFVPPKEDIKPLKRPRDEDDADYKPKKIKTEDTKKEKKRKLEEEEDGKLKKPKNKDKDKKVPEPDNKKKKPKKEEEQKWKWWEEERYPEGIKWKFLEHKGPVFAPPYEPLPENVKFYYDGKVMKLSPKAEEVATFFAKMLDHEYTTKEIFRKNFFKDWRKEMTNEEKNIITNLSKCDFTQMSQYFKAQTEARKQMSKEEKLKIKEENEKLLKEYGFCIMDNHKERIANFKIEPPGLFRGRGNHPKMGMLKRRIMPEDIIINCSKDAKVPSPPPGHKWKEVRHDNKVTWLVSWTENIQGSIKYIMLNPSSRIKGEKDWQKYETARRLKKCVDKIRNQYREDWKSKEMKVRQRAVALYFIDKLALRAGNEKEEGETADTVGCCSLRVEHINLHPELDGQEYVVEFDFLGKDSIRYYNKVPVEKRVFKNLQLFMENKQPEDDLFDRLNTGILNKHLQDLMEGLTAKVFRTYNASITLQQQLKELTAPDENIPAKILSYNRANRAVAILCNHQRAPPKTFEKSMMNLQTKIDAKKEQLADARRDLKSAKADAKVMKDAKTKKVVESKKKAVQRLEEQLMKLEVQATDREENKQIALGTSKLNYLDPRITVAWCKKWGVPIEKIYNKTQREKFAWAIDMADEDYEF

HCT-116 = assay: cells; settings: Homo sapiens, HCT-116, 72 h
DU-145 = assay: cells; settings: Homo sapiens, DU-145, 72 h
[2] = biological target: T1, DNA topoisomerase 1 (Homo sapiens); assay: Inhibition of recombinant TOP1 (unknown origin) using 3'-[32P]-labeled 117 bp DNA oligonucleotide assessed as TOP1-mediated DNA cleavage by measuring induction and stabilization of cleavage sites 17, 35 and 79 at 1 uM incubated for 20 mins by PAGE analysis
[3] = biological target: T1, DNA topoisomerase 1 (Homo sapiens); assay: Inhibition of recombinant TOP1 (unknown origin) using 3'-[32P]-labeled 117 bp DNA oligonucleotide assessed as TOP1-mediated DNA cleavage by measuring induction and stabilization of cleavage sites 17, 35 and 79 incubated for 20 mins by PAGE analysis
[4] = biological target: T1, DNA topoisomerase 1 (Homo sapiens); assay: Inhibition of TOP1 in human HCT116 cells assessed as induction of DNA damage by measuring increase in gammaH2AX foci at 1 uM incubated for 3 hrs by DAPI staining based immunofluorescence microscopic method; assay type: cell-based
[5] = biological target: T1, DNA topoisomerase 1 (Homo sapiens); assay: Inhibition of TOP1 in human HCT116 cells assessed as induction of cellular TOP1cc formation incubated for 1 hr by chemiluminescence based assay; assay type: cell-based
[6] = biological target: T1, DNA topoisomerase 1 (Homo sapiens); assay: Inhibition of TOP1 in human HCT116 cells assessed as induction of cellular TOP1cc formation at 25 uM incubated for 1 hr by chemiluminescence based assay; assay type: cell-based

Row | Compound | GI50 (A549) [µM] | GI50 (MCF7) [µM] | inhibition [1] [%] | GI50 (HCT-116) [µM] | GI50 (DU-145) [µM] | Activity [2] | Activity [3] | Activity [4] | Activity [5] | Activity [6]
1 | COc1cc2c(=O)n(CCN(C)S(=O)(=O)C(F)(F)F)c3c4cc5c(cc4ccc3c2cc1OC)OCO5 | 42 | 35 | 0 to 50 | 86 | 65 | – | – | – | – | –
2 | COc1cc2c3c(n(CCCNCCO)c(=O)c2cc1OC)-c1cc2c(cc1C3=O)OCO2 | – | – | – | – | – | Active | – | – | – | –
3 | COc1cc2c(=O)n(CCNS(=O)(=O)N3CCOCC3)c3c4cc5c(cc4ccc3c2cc1OC)OCO5 | 2.9 | 0.89 | 50 to 75 | 1.1 | 1.6 | – | Dose-dependent effect | – | – | –
4 | CC[C@@]1(O)C(=O)OCc2c1cc1n(c2=O)Cc2cc3ccccc3nc2-1 | – | – | – | – | – | inactive | – | Active | Dose-dependent effect | Active
5 | COc1cc2c(=O)n(CCN(C)P3(=O)OCCO3)c3c4cc5c(cc4ccc3c2cc1OC)OCO5 | – | – | 50 to 75 | – | – | – | Dose-dependent effect | – | – | –
6 | COc1cc2c(=O)n(CCNC(=O)C3CC3)c3c4cc5c(cc4ccc3c2cc1OC)OCO5 | 1.3 | 2.2 | 20 to 50 | 5.3 | 7.8 | – | – | – | – | –
7 | COc1cc2c(=O)n(CCNS(=O)(=O)C3CC3)c3c4cc5c(cc4ccc3c2cc1OC)OCO5 | 4.3 | 3 | 50 to 75 | 5.2 | 1.3 | – | Dose-dependent effect | – | – | –
8 | COc1cc2c(=O)n(C)c3c4cc5c(cc4ccc3c2cc1OC)OCO5 | 39 | 31 | – | 74 | 64 | – | – | – | – | –
9 | COc1cc2c(=O)n(CCNS(=O)(=O)N3CCCC3)c3c4cc5c(cc4ccc3c2cc1OC)OCO5 | 61 | 38 | 0 to 50 | 34 | 79 | – | – | – | – | –
10 | COc1cc2c(=O)n(CCN(C)S(=O)(=O)N3CCOCC3)c3c4cc5c(cc4ccc3c2cc1OC)OCO5 | 35 | 64 | 20 to 50 | 40 | 48 | – | – | – | – | –
11 | COc1cc2c(=O)n(CCN(C)P(=O)(OC)OC)c3c4cc5c(cc4ccc3c2cc1OC)OCO5 | 14 | 10 | 50 to 75 | 9.2 | 5.3 | – | Dose-dependent effect | – | – | –
12 | COc1cc2c(=O)n(CCNP(=O)(OC)OC)c3c4cc5c(cc4ccc3c2cc1OC)OCO5 | 41 | 48 | 0 to 50 | 51 | 39 | – | – | – | – | –
13 | COc1cc2c(=O)n(CCNS(=O)(=O)N(C)C)c3c4cc5c(cc4ccc3c2cc1OC)OCO5 | 35 | 21 | 20 to 50 | 30 | 45 | – | – | – | – | –
14 | COc1cc2c(=O)n(CCN(C)S(=O)(=O)N(C)C)c3c4cc5c(cc4ccc3c2cc1OC)OCO5 | 7.9 | 1.5 | 20 to 50 | 0.96 | 15 | – | – | – | – | –
15 | COc1cc2c(=O)n(CCN(C)S(=O)(=O)C3CC3)c3c4cc5c(cc4ccc3c2cc1OC)OCO5 | 15 | 5.8 | 20 to 50 | 7.9 | 10 | – | – | – | – | –
16 | COc1cc2c(=O)n(CCN(C)S(=O)(=O)N3CCCC3)c3c4cc5c(cc4ccc3c2cc1OC)OCO5 | 5.3 | 3.8 | 20 to 50 | 2.5 | 3.1 | – | – | – | – | –
